Test results from patent publication US20210293825A1, “METHODS FOR PRECISION THERAPEUTIC TARGETING OF HUMAN CANCER CELL MOTILITY AND KITS THEREOF” (UNITED STATES GOVERNMENT AS REPRESENTED BY THE DEPARTMENT …, priority 2018, published 2021).

Columns and labels:
[1] = Pharmacokinetics after oral gavage or intravenous injection; format: in vivo, CD1 mice; conditions: after a single oral dose
Experimental: Cohorts of N=12 athymic mice bearing human PCa PC3-M cell orthotopic implants (a), or of N=5 non-tumor bearing athymic mice (b), were treated with KBU2046 incorporated into chow, and resultant lung metastasis (a) or plasma KBU2046 concentration (b) measured. Values are the mean±SEM. The relationship between dose and metastasis was evaluated by two-sided ANOVA (a). FIG. 2c a comprehensive characterization of KBU2046 pharmacokinetics. CD1 mice were dosed with 100 mg KBU2046/kg via oral gavage or intravenous injection (iv), and blood collected at the indicated time points (data from mice dosed at 25 mg/kg are in FIG. 12, and corroborate 100 mg/kg findings). For each route and time point, N=3 mice were sampled. Individual data points are the resultant plasma concentrations from individual mice, and are the mean of N=2 measurements. The dotted horizontal line denotes a concentration of 24 nM, which was the concentration of KBU2046 measured in the blood of mice whose metastasis were suppressed by 92% (a-b). […]
KBU2046 Quantification and Pharmacokinetics. […]
Plasma KBU2046 concentrations were measured in duplicate by liquid chromatography-tandem mass spectrometry after sample preparation by solid-phase extraction. […] The mass-to-charge ratios of the precursor-to-product ion reactions monitored were 243.5→125.1 for KBU2046 and 257.0→165.0 for the internal standard. […]

CDC37 = molecular target: T1, CDC37 (Homo sapiens, UniProt Q16543); test: Biophysical binding assays and DARTS, isolated CDC37; conditions: ITC, thermal shift, biolayer interferometry, dynamic light scattering, DARTS
T1 construct: made in house; host or cells: BL-21 DE-3 E. coli, pET15b
T1 sequence (Q16543 whole entry): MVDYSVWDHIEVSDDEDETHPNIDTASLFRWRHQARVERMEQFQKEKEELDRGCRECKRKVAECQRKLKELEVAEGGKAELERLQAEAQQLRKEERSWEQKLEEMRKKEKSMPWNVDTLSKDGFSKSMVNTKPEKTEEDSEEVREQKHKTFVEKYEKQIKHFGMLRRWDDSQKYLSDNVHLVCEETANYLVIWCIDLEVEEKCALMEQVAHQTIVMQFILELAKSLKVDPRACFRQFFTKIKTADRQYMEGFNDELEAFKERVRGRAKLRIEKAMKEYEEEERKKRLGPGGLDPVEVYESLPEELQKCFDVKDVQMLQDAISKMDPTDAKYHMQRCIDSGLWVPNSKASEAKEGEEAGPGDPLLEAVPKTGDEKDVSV
Experimental: Studies used purified recombinant HSP90β or CDC37. […] For DARTS assay, HSP90β or CDC37 were individually pre-incubated with KBU2046, thermolysin added, and reaction products were separated by SDS PAGE and visualized by silver stain (depicted above). NTco—no thermolysin control. However, when the DARTS assay was conducted with both HSP90β and CDC37 present, KBU2046 protected both proteins from degradation in a concentration-dependent manner (see, FIG. 5a).
DARTS provides a sensitive measure of ligand-induced changes in protein structure and dynamics by measuring the ability of a ligand to protect its target from protease digestion (Lomenick, B. et al., Proc Natl Acad Sci USA 106, 21984-9 (2009)). […] The intensity of the CDC37 band increased, that of the HSP90β degradation product decreased, and both effects were statistically significant, concentration-dependent and were evident at 10 nM. […] Further, these findings also indicate that KBU2046 is not acting as a classical HSP90 inhibitor.
Biophysical and Biochemical Binding Assays. […]

## O=C1c2ccccc2OCC1c1ccc(F)cc1 (racemic) [KBU2046, (±)-3(4-fluorophenyl)chroman-4-one]
[1]
  maintenance of plasma concentrations >24 nM: 9.3 h
CDC37
  binding to CDC37: no evidence of KBU2046 binding
